From ChEMBL document CHEMBL1201862, “PubChem BioAssay data set” (2004)
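1) Cells in 96-well plates. 2) Compound, 48 h, 5 concentrations. 3) Linear interpolation between surrounding doses. 4) Unreached endpoint = highest concentration. GI50 marks 50% less growth.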 Active and inactive are the calls of the source. Cut-off read from the data, not from the text of the source: active = GI50 up to about 1.1 µM and inactive = higher.

Tests used:
Experiment in all cases: NCI-60 cell line screen, 48 h
[1] = test system: DU-145
[2] = test system: NCI-H460
[3] = test system: OVCAR-8
[4] = test system: MCF7
[5] = test system: SK-MEL-28
[6] = test system: BT-549
[7] = test system: SNB-75
[8] = test system: MDA-N
[9] = test system: UACC-62
[10] = test system: NCI-H226
[11] = test system: EKVX
[12] = test system: NCI/ADR-RES
[13] = test system: UACC-257
[14] = test system: IGROV-1
[15] = test system: MDA-MB-435
[16] = test system: HOP-62
[17] = test system: PC-3
[18] = test system: SW-620

Structure (SMILES)	GI50 [1]	GI50 [2]	GI50 [3]	GI50 [4]	GI50 [5]	GI50 [6]	GI50 [7]	GI50 [8]	GI50 [9]	GI50 [10]	GI50 [11]	GI50 [12]	GI50 [13]	GI50 [14]	GI50 [15]	GI50 [16]	GI50 [17]	GI50 [18]
CCOP(=O)(OCC)/C(=C/n1c(=S)[nH]c2ccccc21)C(=O)OC	> 100 µM (inactive)	10 µM (inactive)	> 100 µM (inactive)	> 100 µM (inactive)	> 100 µM (inactive)	> 100 µM (inactive)	34.4 µM (inactive)	> 100 µM (inactive)	> 100 µM (inactive)	> 100 µM (inactive)	> 100 µM (inactive)	> 100 µM (inactive)	> 100 µM (inactive)	> 100 µM (inactive)	> 100 µM (inactive)	> 100 µM (inactive)	> 100 µM (inactive)	> 100 µM (inactive)
Cc1nnc(N)nc1/C=C\c1ccc(N(C)C)cc1	> 66.2 µM (inactive)	9.66 µM (inactive)	22.9 µM (inactive)	3.85 µM (inactive)	> 45.9 µM (inactive)	> 20.9 µM (inactive)	2.67 µM (inactive)	17.4 µM (inactive)	4.27 µM (inactive)	16.1 µM (inactive)	29.6 µM (inactive)	12.4 µM (inactive)	22.5 µM (inactive)	37.5 µM (inactive)	6.27 µM (inactive)	38.5 µM (inactive)	30.7 µM (inactive)	> 64.6 µM (inactive)
COc1cc(C2CC(C)(Nc3ccccc3)Oc3cc4c(cc32)OCO4)cc(OC)c1OC (stereo not given)	0.352 µM (active)	0.327 µM (active)	0.483 µM (active)	0.135 µM (active)	0.254 µM (active)	0.506 µM (active)	3.49 µM (inactive)	0.0412 µM (active)	0.203 µM (active)	0.855 µM (active)	1.82 µM (inactive)	0.277 µM (active)	2.2 µM (inactive)	0.386 µM (active)	0.0172 µM (active)	0.192 µM (active)	0.251 µM (active)	0.234 µM (active)
CN1C(=O)c2ccc3ccccc3c2C1=O	> 100 µM (inactive)	> 100 µM (inactive)	> 100 µM (inactive)	> 100 µM (inactive)	> 100 µM (inactive)	> 100 µM (inactive)	27.9 µM (inactive)	> 100 µM (inactive)	> 100 µM (inactive)	> 100 µM (inactive)	14 µM (inactive)	> 100 µM (inactive)	> 100 µM (inactive)	> 100 µM (inactive)	> 100 µM (inactive)	> 100 µM (inactive)	> 100 µM (inactive)	> 100 µM (inactive)
CCOC(=O)c1cccc(/N=N/c2ncc(/C=C/C(=O)OC)[nH]2)c1	19.1 µM (inactive)	14.3 µM (inactive)	17.3 µM (inactive)	21.6 µM (inactive)	27 µM (inactive)	34.8 µM (inactive)	26.4 µM (inactive)	15.7 µM (inactive)	21.5 µM (inactive)	36.1 µM (inactive)	27.7 µM (inactive)	22 µM (inactive)	16.2 µM (inactive)	20.6 µM (inactive)	28 µM (inactive)	16.3 µM (inactive)	24.3 µM (inactive)	26.5 µM (inactive)
COC(=O)C(=O)CC(=O)c1cccc(OC)c1	> 100 µM (inactive)	> 100 µM (inactive)	> 100 µM (inactive)	> 100 µM (inactive)	> 100 µM (inactive)	> 100 µM (inactive)	> 100 µM (inactive)	5.66 µM (inactive)	> 100 µM (inactive)	> 100 µM (inactive)	> 100 µM (inactive)	> 100 µM (inactive)	> 100 µM (inactive)	< 0.01 µM (active)	> 100 µM (inactive)	> 100 µM (inactive)	> 100 µM (inactive)	> 100 µM (inactive)
Cc1coc2c1C(OC(=O)C(C)C)C1(C)C(C)CCC(O)C1C2=O (stereo not given)	> 100 µM (inactive)	> 100 µM (inactive)	> 100 µM (inactive)	98.2 µM (inactive)	> 100 µM (inactive)	> 50.8 µM (inactive)	> 100 µM (inactive)	> 100 µM (inactive)	> 100 µM (inactive)	> 100 µM (inactive)	> 100 µM (inactive)	> 100 µM (inactive)	> 100 µM (inactive)	> 100 µM (inactive)	> 100 µM (inactive)	> 100 µM (inactive)	97.9 µM (inactive)	> 100 µM (inactive)
CC1=NN2CCC(=O)N=C2S1	> 100 µM (inactive)	> 100 µM (inactive)	> 100 µM (inactive)	> 100 µM (inactive)	> 100 µM (inactive)	> 100 µM (inactive)	> 100 µM (inactive)	> 100 µM (inactive)	> 100 µM (inactive)	> 100 µM (inactive)	> 100 µM (inactive)	> 100 µM (inactive)	> 100 µM (inactive)	> 100 µM (inactive)	> 100 µM (inactive)	> 100 µM (inactive)	> 100 µM (inactive)	> 100 µM (inactive)
C=CCc1cccc2cc(C(=O)NCc3ccccc3)c(=N)oc12	37.1 µM (inactive)	28.5 µM (inactive)	43.9 µM (inactive)	47.8 µM (inactive)	30.7 µM (inactive)	40.3 µM (inactive)	31.3 µM (inactive)	41.4 µM (inactive)	22.8 µM (inactive)	24.2 µM (inactive)	26.1 µM (inactive)	34.2 µM (inactive)	89.3 µM (inactive)	24.9 µM (inactive)	25.8 µM (inactive)	38.5 µM (inactive)	18.6 µM (inactive)	49.4 µM (inactive)
O=C(NCc1ccccc1)c1cc2ccccc2o/c1=N\c1ccccc1F	29.7 µM (inactive)	41.7 µM (inactive)	14.3 µM (inactive)	33.7 µM (inactive)	66.2 µM (inactive)	> 100 µM (inactive)	20 µM (inactive)	34.8 µM (inactive)	29.9 µM (inactive)	31.6 µM (inactive)	27.7 µM (inactive)	46.7 µM (inactive)	34.4 µM (inactive)	24 µM (inactive)	26.3 µM (inactive)	15.6 µM (inactive)	33.5 µM (inactive)	26.1 µM (inactive)
O=c1c2ccccc2c2c1c1c3ccccc3c(=O)c1c1c3ccccc3c(=O)c21	> 100 µM (inactive)	> 100 µM (inactive)	> 100 µM (inactive)	> 100 µM (inactive)	> 100 µM (inactive)	> 100 µM (inactive)	> 100 µM (inactive)	> 100 µM (inactive)	> 100 µM (inactive)	> 100 µM (inactive)	> 100 µM (inactive)	> 100 µM (inactive)	> 100 µM (inactive)	> 100 µM (inactive)	> 100 µM (inactive)	> 100 µM (inactive)	> 100 µM (inactive)	> 100 µM (inactive)
C[C@@H]1C[C@@H]2OC(=O)[C@]3(C)[C@H]2[C@@H](OC3(C)O)[C@]2(C)C(=O)C=C[C@@H]12 (stereo not given in full) [TENULIN]	39.6 µM (inactive)	–	32.4 µM (inactive)	15.7 µM (inactive)	18.3 µM (inactive)	10.1 µM (inactive)	> 100 µM (inactive)	17.5 µM (inactive)	16.8 µM (inactive)	74 µM (inactive)	20.2 µM (inactive)	> 100 µM (inactive)	18 µM (inactive)	> 10 µM (inactive)	24.2 µM (inactive)	87.7 µM (inactive)	87.9 µM (inactive)	16.9 µM (inactive)
CCC1([N+](=O)[O-])CC2C=CC1C2 (stereo not given)	> 100 µM (inactive)	> 100 µM (inactive)	> 100 µM (inactive)	> 100 µM (inactive)	> 100 µM (inactive)	> 100 µM (inactive)	> 100 µM (inactive)	> 100 µM (inactive)	> 100 µM (inactive)	> 100 µM (inactive)	> 100 µM (inactive)	> 100 µM (inactive)	> 100 µM (inactive)	> 100 µM (inactive)	> 100 µM (inactive)	> 100 µM (inactive)	> 100 µM (inactive)	> 100 µM (inactive)
COc1ccc([C@H]2CC(=O)C[C@H](c3ccc(OC)cc3)C23C(=O)c2ccccc2C3=O)cc1	16.4 µM (inactive)	3.65 µM (inactive)	9.75 µM (inactive)	7.06 µM (inactive)	9.64 µM (inactive)	5.65 µM (inactive)	2.9 µM (inactive)	2.07 µM (inactive)	4 µM (inactive)	6.11 µM (inactive)	4.59 µM (inactive)	1.94 µM (inactive)	2.29 µM (inactive)	5.28 µM (inactive)	1.95 µM (inactive)	6.25 µM (inactive)	4.21 µM (inactive)	3.53 µM (inactive)
Cc1ncc(CSc2ccccc2N)c(CO)c1O	> 100 µM (inactive)	–	> 100 µM (inactive)	> 100 µM (inactive)	> 100 µM (inactive)	> 100 µM (inactive)	> 100 µM (inactive)	> 100 µM (inactive)	65.8 µM (inactive)	> 100 µM (inactive)	> 100 µM (inactive)	> 100 µM (inactive)	> 100 µM (inactive)	> 100 µM (inactive)	> 100 µM (inactive)	> 100 µM (inactive)	> 100 µM (inactive)	> 100 µM (inactive)
CC1C2(C)OCC(C#N)(C(=N)O2)C1(C#N)C#N (stereo not given)	22.5 µM (inactive)	18.5 µM (inactive)	23.9 µM (inactive)	20.7 µM (inactive)	24.8 µM (inactive)	35.2 µM (inactive)	96.8 µM (inactive)	18.3 µM (inactive)	24.9 µM (inactive)	67 µM (inactive)	19.1 µM (inactive)	41.2 µM (inactive)	23.9 µM (inactive)	33 µM (inactive)	28.6 µM (inactive)	–	24.2 µM (inactive)	25.9 µM (inactive)
